The values below come from patent US20060148858A1, “1, 2-Azole derivatives with hypoglycemic and hypolipidemic activity” (priority 2002, published 2006).

Series [1] concerns KKAY mice. Description: Plasma anti-arteriosclerosis index-enhancing action in mice (Test Example 2). The class given is in vivo. The settings on record: Mus musculus, po, 96 h, 0.005% in powdery diet, four days, percent increase of (HDL cholesterol/total cholesterol)x100, non-treatment group taken as 100%. The procedure:
Test compounds were mixed in a powdery diet (CE-2, Japan Clea) at the concentration of 0.005%, and freely given to KKAY mice (9 to 12 weeks old, 5 mice per group), a model of obese and non-insulin dependent diabetes (type 2 diabetes), for four days. During this period, water was given freely. Blood was sampled from orbital venous plexus and components in plasma separated from blood were determined. Total cholesterol levels were determined by using L type Wako Cholesterol (Wako Pure Chemical Industries, Ltd.). Precipitation reagent for HDL cholesterol (Wako Pure Chemical Industries, Ltd.) was added to a part of the plasma to precipitate non-HDL lipoprotein, and cholesterol (HDL cholesterol) in the resulting supernatant was determined. The plasma anti-arteriosclerosis index [(HDL cholesterol/total cholesterol)×100] was calculated by using these cholesterol levels.
In the Table, “Plasma anti-arteriosclerosis index-enhancing action (%)” represents the percent increase (%) of plasma anti-arteriosclerosis index in the treatment group, when the plasma anti-arteriosclerosis index in the non-treatment group is taken as 100%.

The target in series [2] is T1, PPARγ-RXRα heterodimer (Homo sapiens, UniProt P37231).
T1 construct: expressed in transfected cells; host or cells: CHO-K1
T1 sequence (P37231 1-477 isoform P37231-2): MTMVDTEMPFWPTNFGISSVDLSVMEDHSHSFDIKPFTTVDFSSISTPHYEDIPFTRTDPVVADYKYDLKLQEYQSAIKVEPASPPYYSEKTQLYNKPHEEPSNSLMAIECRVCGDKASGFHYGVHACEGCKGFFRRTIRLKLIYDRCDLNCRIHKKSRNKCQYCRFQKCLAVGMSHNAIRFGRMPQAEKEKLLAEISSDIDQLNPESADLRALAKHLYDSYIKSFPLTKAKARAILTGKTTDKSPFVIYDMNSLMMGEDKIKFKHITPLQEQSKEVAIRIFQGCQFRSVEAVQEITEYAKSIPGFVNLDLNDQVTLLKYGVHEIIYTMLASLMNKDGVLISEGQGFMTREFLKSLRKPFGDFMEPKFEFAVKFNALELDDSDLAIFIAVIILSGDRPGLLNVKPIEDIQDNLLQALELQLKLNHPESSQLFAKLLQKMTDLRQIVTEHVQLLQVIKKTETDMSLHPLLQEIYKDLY
T1 sequence (P19793 1-462 partner): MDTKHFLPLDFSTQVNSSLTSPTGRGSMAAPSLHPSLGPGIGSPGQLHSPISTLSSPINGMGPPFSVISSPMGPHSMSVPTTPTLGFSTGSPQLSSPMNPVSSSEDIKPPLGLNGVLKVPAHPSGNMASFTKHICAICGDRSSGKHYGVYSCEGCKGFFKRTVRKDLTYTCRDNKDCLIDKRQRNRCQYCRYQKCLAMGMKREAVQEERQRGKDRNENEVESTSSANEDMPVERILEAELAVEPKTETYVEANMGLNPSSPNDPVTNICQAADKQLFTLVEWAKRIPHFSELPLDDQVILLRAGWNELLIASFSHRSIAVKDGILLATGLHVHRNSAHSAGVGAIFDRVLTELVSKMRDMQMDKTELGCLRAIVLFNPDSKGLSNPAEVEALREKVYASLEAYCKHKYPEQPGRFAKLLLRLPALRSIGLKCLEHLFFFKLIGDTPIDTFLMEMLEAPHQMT
The series can be described thus: PPARγ-RXRα heterodimer ligand activity, luciferase reporter in PPARγ:RXRα:4ERPP/CHO-K1 cells (Test Example 3). The class given is cell-based. The settings on record: 18-48 hours, concentration for 50% of the maximum fold induction. An outline of the steps: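 Stable CHO-K1 line co-expressing hPPARγ/RXR with 4ERPP-TK luciferase reporter, 2×10^4 cells per well, treated 18-48 h at 37° C. in HAM F12 with 0.1% fatty acid-free BSA. Luciferase fold induction versus untreated taken as 1; EC50 is concentration giving 50% of maximal fold induction.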

For series [3], the target named is T2, PPARδ-RXRα heterodimer (Homo sapiens, UniProt Q03181).
T2 construct: expressed in transfected cells; host or cells: COS-1
T2 sequence (Q03181 1-441): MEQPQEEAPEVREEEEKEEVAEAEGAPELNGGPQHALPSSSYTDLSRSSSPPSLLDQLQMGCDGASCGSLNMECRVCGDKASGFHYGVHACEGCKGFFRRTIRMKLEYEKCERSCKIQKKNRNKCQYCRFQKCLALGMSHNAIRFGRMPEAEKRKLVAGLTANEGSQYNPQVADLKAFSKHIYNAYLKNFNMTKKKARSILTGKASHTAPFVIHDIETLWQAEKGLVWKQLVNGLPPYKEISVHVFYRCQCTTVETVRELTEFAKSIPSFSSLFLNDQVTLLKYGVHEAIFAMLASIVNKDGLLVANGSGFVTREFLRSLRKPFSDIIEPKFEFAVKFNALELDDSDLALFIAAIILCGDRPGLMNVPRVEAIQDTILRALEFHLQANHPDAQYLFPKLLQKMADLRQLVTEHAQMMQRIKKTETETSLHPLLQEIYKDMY
T2 sequence (P19793 1-462 partner): T1 sequence (P19793 1-462 partner)
Description: PPARδ-RXRα heterodimer ligand activity, luciferase reporter in COS-1 transformant (Test Example 4). The class given is cell-based. The settings on record: COS-1 transformant (hPPARδ, hRXRα, reporter), 36-48 hours, concentration for 50% of the maximum fold induction. Put shortly:
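COS-1 cells transiently co-transfected with human PPARδ, human RXRα, PPRE-luciferase reporter and pRL-tk, then exposed to compound 36-48 h at 37 °C in DMEM with 0.1% fatty acid-free BSA. Luciferase read as fold induction over untreated; EC50 at 50% of maximal fold induction.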
(In general: In a reporter assay the amount or activity of a reporter protein is the signal.)

Series [4] deals with KKAY mice. Description: Hypoglycemic and hypolipidemic actions in mice (Test Example 1). To be noted: Mus musculus, po, 96 h, 0.005% in powdery diet, four days, non-treated group taken as 100%. It is filed as in vivo. Put shortly: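 KKAY mice (9 to 12 weeks old, 5 per group) were fed diet containing 0.005% test compound ad libitum for four days. Plasma glucose and triglycerides from orbital venous blood were measured enzymatically, reported as % decrease relative to untreated group (100%).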

Where [5] appears, read: rate of decrease in blood glucose level, read-out: Hypoglycemic action (%).
The mark [6] stands for this setting: rate of decrease in blood triglyceride level, read-out: Hypolipidemic action (%).

Like-named read-outs stand apart in the source and are kept apart here.

For the molecule `O=C(O)Cc1ccccc1OCCCc1cn(-c2ccc(C(F)(F)F)cn2)nc1C1CCCCC1` [Example 302, [2-(3-{3-cyclohexyl-1-[5-(trifluoromethyl)-2-pyridinyl]-1H-pyrazol-4-yl}propoxy)phenyl]acetic acid], the melting point fell in the range of 127 to 128 °C. In addition, in series [1], the change in vivo at 0.005 % in diet came to 24%. The molecule also yielded an EC50 in series [2] of 37 nM.

For `CC(C)c1nn(-c2ccc(C(F)(F)F)cn2)cc1CCCOc1cccc(CC(=O)O)c1` [Example 22, [3-(3-{3-isopropyl-1-[5-(trifluoromethyl)-2-pyridyl]-1H-pyrazol-4-yl}propoxy)phenyl]acetic acid], the melting point fell in the range of 82 to 83 °C. Further, in series [1], the change in vivo at 0.005 % in diet was 12%. The molecule also had a 50% effective concentration (EC50) in series [3] of 8.6 nM.

`CCCc1nn(-c2ccc(C(F)(F)F)cn2)cc1CCCOc1c(CC(=O)O)cccc1OC` [Example 259, [3-methoxy-2-(3-{3-propyl-1-[5-(trifluoromethyl)-2-pyridyl]-1H-pyrazol-4-yl}propoxy)phenyl]acetic acid] yielded a melting point of 122 to 123 °C. In addition, the inhibition in vivo at 0.005 % in diet in series [4] (setting [5]) came to 34%. Besides, the inhibition in vivo at 0.005 % in diet in series [4] (setting [6]) is 70%. In addition, the change in vivo at 0.005 % in diet in series [1] was determined as 25%. The molecule further returned an EC50 in series [2] of 76 nM.

Take `CCC(CC)c1nn(-c2ccc(C(F)(F)F)cn2)cc1CCCOc1nn(CC)cc1CC(=O)O` [Example 333, [1-ethyl-3-(3-{3-(1-ethylpropyl)-1-[5-(trifluoromethyl)-2-pyridinyl]-1H-pyrazol-4-yl}propoxy)-1H-pyrazol-4-yl]acetic acid]: in series [1], the change in vivo at 0.005 % in diet was found to be 11%. The EC50 in series [2] was 61 nM.

`Cc1nn(-c2ccc(C(F)(F)F)cn2)cc1COc1ccc(OC(C)(C)C(=O)O)cc1` [Example 34, 2-methyl-2-(4-{3-methyl-1-[5-(trifluoromethyl)-2-pyridyl]-1H-pyrazol-4-ylmethoxy}phenoxy)propionic acid] registered a melting point of 106 to 107 °C. The inhibition in vivo at 0.005 % in diet in series [4] (setting [5]) amounted to 49%. Further, in series [4] (setting [6]), the inhibition in vivo at 0.005 % in diet was 77%. Also, the change in vivo at 0.005 % in diet in series [1] stood at 20%. It took 8.1 nM to reach a half-maximal effect in series [3] (EC50).

`COc1cccc(CC(=O)O)c1OCCCc1cn(-c2ccc(C(C)=O)cn2)nc1C(C)C` [Example 332, (2-{3-[1-(5-acetyl-2-pyridinyl)-3-isopropyl-1H-pyrazol-4-yl]propoxy}-3-methoxyphenyl)acetic acid] showed a melting point of 148 to 149 °C. For the same molecule, in series [1], the change in vivo at 0.005 % in diet was 11%. In series [2], this molecule yielded an EC50 of 29 nM.

Regarding `Cn1cc(CC(=O)O)c(OCCCc2cn(-c3ccc(C(F)(F)F)cn3)nc2C2CCCCC2)n1` [Example 303, [3-(3-{3-cyclohexyl-1-[5-(trifluoromethyl)-2-pyridinyl]-1H-pyrazol-4-yl}propoxy)-1-methyl-1H-pyrazol-4-yl]acetic acid], the melting point was 157 to 158 °C. Also, in series [1], the change in vivo at 0.005 % in diet worked out at 14%. Besides, in series [2], the response was half-maximal at 52 nM (EC50).

Turning to `COc1cccc(CC(=O)O)c1OCCCc1cn(-c2ccc(C(F)(F)F)cc2)nc1C(C)C` [Example 185, [2-(3-{3-isopropyl-1-[4-(trifluoromethyl)phenyl]-1H-pyrazol-4-yl}propoxy)-3-methoxyphenyl]acetic acid], the melting point was in the range of 114 to 115 °C. Besides, in series [4] (setting [5]), the inhibition in vivo at 0.005 % in diet came out at 47%. In addition, the inhibition in vivo at 0.005 % in diet in series [4] (setting [6]) was found to be 43%. In addition, the change in vivo at 0.005 % in diet in series [1] is 15%.

Molecule `CCCc1nn(-c2ccc(C(F)(F)F)cn2)cc1CCCOc1c(CC(=O)O)cccc1OCC` [Example 260, [3-ethoxy-2-(3-{3-propyl-1-[5-(trifluoromethyl)-2-pyridyl]-1H-pyrazol-4-yl}propoxy)phenyl]acetic acid] displayed a melting point of 133 to 134 °C. Further, in series [4] (setting [5]), the inhibition in vivo at 0.005 % in diet stood at 42%. Besides, the inhibition in vivo at 0.005 % in diet in series [4] (setting [6]) was 44%. For the same molecule, the change in vivo at 0.005 % in diet in series [1] worked out at 22%.

With `CCc1cccc(CC(=O)O)c1OCCCc1cn(-c2ccc(Cl)cn2)nc1C(CC)CC` [Example 253, (2-{3-[1-(5-chloro-2-pyridinyl)-3-(1-ethylpropyl)-1H-pyrazol-4-yl]propoxy}-3-ethylphenyl)acetic acid], the melting point was in the range of 114 to 115 °C. In addition, the inhibition in vivo at 0.005 % in diet in series [4] (setting [5]) turned out to be 49%. Moreover, the inhibition in vivo at 0.005 % in diet in series [4] (setting [6]) is 35%. In addition, the change in vivo at 0.005 % in diet in series [1] worked out at 16%.

`CCC(CC)c1nn(-c2ccc(Cl)cn2)cc1CCCOc1c(C)cccc1CC(=O)O` [Example 224, (2-{3-[1-(5-chloro-2-pyridyl)-3-(1-ethylpropyl)-1H-pyrazol-4-yl]propoxy}-3-methylphenyl)acetic acid] returned a melting point of 106 to 107 °C. Further, the inhibition in vivo at 0.005 % in diet in series [4] (setting [5]) was determined as 48%. The inhibition in vivo at 0.005 % in diet in series [4] (setting [6]) turned out to be 60%. Further, the change in vivo at 0.005 % in diet in series [1] worked out at 14%.

Molecule `CCOc1cccc(CC(=O)O)c1OCCCc1cn(-c2ccc(Cl)cn2)nc1C(CC)CC` [Example 225, (2-{3-[1-(5-chloro-2-pyridyl)-3-(1-ethylpropyl)-1H-pyrazol-4-yl]propoxy}-3-ethoxyphenyl)acetic acid] yielded a melting point of 92 to 93 °C. Besides, the inhibition in vivo at 0.005 % in diet in series [4] (setting [5]) stood at 31%. Besides, in series [4] (setting [6]), the inhibition in vivo at 0.005 % in diet is 35%. The change in vivo at 0.005 % in diet in series [1] came out at 12%.

`CCOc1cc(OCCCc2cn(-c3ccc(C(F)(F)F)cn3)nc2OCC)ccc1CCC(=O)O` [Example 35, 3-[2-ethoxy-4-(3-{3-ethoxy-1-[5-(trifluoromethyl)-2-pyridyl]-1H-pyrazol-4-yl}propoxy)phenyl]propionic acid] gave a melting point of 96 to 97 °C. In addition, the inhibition in vivo at 0.005 % in diet in series [4] (setting [5]) was found to be 30%. For the same molecule, the inhibition in vivo at 0.005 % in diet in series [4] (setting [6]) is 32%. Moreover, the change in vivo at 0.005 % in diet in series [1] came to 14%. The same molecule showed an EC50 in series [3] of 1.6 nM.

For orientation: EC50 means the concentration at which the effect is half-maximal. By melting point is commonly meant the temperature, or range, at which the solid turns liquid.
